Source: patent US9353090B2, “Heterocyclic carboxylic acids as activators of soluble guanylate cyclase” (Boehringer Ingelheim International GmbH, priority 2014, dated 2016)
≈ marks a conversion by molar mass, not a printed value.

Legend:
[1] = target: human soluble guanylate cyclase alpha 1 and beta 1 subunits (sGC) (Homo sapiens (Human), UniProt Q02108+Q02153); test: sGC cellular activator assay (cGMP, HTRF), in the presence and absence of 50% human serum; type: cell-based; conditions: CHO cells stably expressing human sGC alpha 1/beta 1, preincubated with 40 microM ODQ; cGMP by HTRF; Table 2 does not state whether with or without 50% human serum
Chain of human soluble guanylate cyclase alpha 1 and beta 1 subunits (sGC) (Q02108 whole entry partner): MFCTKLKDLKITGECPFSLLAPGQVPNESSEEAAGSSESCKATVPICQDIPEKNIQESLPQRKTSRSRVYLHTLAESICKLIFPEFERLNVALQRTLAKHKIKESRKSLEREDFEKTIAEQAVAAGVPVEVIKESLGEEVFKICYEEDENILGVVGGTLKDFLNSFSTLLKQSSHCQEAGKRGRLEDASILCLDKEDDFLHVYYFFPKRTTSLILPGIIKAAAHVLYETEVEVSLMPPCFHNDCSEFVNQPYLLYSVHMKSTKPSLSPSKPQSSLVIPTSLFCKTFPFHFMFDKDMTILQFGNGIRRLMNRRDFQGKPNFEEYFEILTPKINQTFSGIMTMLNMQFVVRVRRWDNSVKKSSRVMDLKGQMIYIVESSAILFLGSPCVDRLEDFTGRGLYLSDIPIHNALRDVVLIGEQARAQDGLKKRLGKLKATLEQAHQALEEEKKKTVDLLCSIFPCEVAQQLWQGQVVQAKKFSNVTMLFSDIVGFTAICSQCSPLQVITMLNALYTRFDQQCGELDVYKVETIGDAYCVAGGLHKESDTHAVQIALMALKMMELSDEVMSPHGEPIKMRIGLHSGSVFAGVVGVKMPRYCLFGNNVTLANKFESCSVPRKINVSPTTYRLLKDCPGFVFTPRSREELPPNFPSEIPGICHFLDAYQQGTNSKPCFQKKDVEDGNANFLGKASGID
Chain of human soluble guanylate cyclase alpha 1 and beta 1 subunits (sGC) (Q02153 whole entry): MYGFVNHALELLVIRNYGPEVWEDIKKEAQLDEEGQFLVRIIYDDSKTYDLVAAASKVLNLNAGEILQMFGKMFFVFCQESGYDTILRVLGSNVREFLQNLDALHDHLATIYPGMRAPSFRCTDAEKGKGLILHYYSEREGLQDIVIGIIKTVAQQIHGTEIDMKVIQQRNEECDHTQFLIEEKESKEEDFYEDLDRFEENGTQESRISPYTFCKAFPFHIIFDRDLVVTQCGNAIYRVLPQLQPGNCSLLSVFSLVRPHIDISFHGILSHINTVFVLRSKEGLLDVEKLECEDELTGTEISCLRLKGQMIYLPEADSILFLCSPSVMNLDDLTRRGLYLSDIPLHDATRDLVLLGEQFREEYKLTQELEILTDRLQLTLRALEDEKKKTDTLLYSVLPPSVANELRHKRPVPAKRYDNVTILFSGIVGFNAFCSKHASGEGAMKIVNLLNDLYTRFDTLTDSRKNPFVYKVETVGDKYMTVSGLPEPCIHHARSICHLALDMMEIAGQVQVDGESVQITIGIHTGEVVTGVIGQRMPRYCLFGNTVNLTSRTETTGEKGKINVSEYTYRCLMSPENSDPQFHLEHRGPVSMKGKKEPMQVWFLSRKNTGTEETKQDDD
Method in brief: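 First, CHO-sGC (human α1β1) cells get 1 h ODQ at 40 microM with IBMX and 0.1% BSA. Finally, cGMP is quantified by HTRF and EC50 computed.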

[2] = Human liver microsome (HLM) metabolic stability assay; type: in vitro ADME; conditions: human liver microsomes
Method in brief: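 Remaining parent measured by LC/MS/MS (ESI, MRM) at 5, 15, 30 and 60 min relative to 0 min. Incubation: 1 uM compound, HLMs, NADPH-started, 37° C., 60 min total, single replicate. Slope of ln(% remaining) gives t1/2 = 0.693/slope, then CLint, CLh and % Qh.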

physchem = conditions: kinetic from dmso stock
[3] = pH 2.2, aqueous buffer, Solubility (pH 2.2)
[4] = pH 4.5, aqueous buffer, Solubility (pH 4.5)
[5] = pH 6.8, aqueous buffer, Solubility (pH 6.8)

SMILES	EC50 [1] [nM]	Metabolic stability (Qh %), % hepatic blood flow [2] [%]	solubility at 24 h (physchem; [3]) [µg/mL]	solubility at 24 h (physchem; [4]) [µg/mL]	solubility at 24 h (physchem; [5]) [µg/mL]
CO[C@@H]1CN(c2nc(-c3cccc(C)c3OCc3ccc4c(c3F)CCN(C3COC3)CC4)cs2)CC[C@@H]1C(=O)O [Compound 267]	7	<24	116 (≈ 199 µM)	60.3 (≈ 104 µM)	59.6 (≈ 102 µM)
CCO[C@@H]1CN(c2nc(-c3cc(C)ccc3OCc3cc(C)c4c(c3F)CCN(C3CCOCC3)C4)cs2)CC[C@@H]1C(=O)O [Compound 269]	6	<24	115 (≈ 184 µM)	35.1 (≈ 56.3 µM)	3 (≈ 4.81 µM)
CO[C@H]1CN(c2cccc(-c3cccc(C)c3OCc3cc(F)c4c(c3)CCN(C3CCOCC3)CC4)n2)CC[C@H]1C(=O)O [Compound 273]	5	<24	120 (≈ 198 µM)	80.7 (≈ 134 µM)	64.3 (≈ 107 µM)
CCO[C@H]1CN(c2nccc(-c3cccc(C)c3OCc3ccc4c(c3C)CCN(C3CCOCC3)CC4)n2)CC[C@H]1C(=O)O [Compound 275]	32	28	117 (≈ 190 µM)	81.3 (≈ 132 µM)	84.5 (≈ 137 µM)
CCO[C@@H]1CN(c2nccc(-c3cccc(C)c3OCc3ccc4c(c3C)CCN(C3CCOCC3)CC4)n2)CC[C@@H]1C(=O)O [Compound 276]	150	<24	126 (≈ 206 µM)	84.8 (≈ 138 µM)	90.6 (≈ 147 µM)
CO[C@H]1CN(c2cccc(-c3cccc(C)c3OCc3ccc4c(c3F)CCN(C3COC3)CC4)n2)CC[C@H]1C(=O)O [Compound 278]	6	<24	122 (≈ 212 µM)	85.1 (≈ 148 µM)	68 (≈ 118 µM)
COCc1cc(COc2c(C)cccc2-c2cccc(N3C[C@@H]4C[C@]4(C(=O)O)[C@H]3COC)n2)cc2c1CN(C1CCOCC1)CC2 [Compound 279]	65	<24	128 (≈ 203 µM)	100 (≈ 160 µM)	82.8 (≈ 132 µM)
COCc1cc(COc2c(C)cccc2-c2cccc(N3C[C@@H]4C[C@]4(C(=O)O)[C@H]3COC)n2)cc2c1CN(C1CCOC1)CC2 (some centres unmarked) [Compound 280]	140	30	120 (≈ 196 µM)	91 (≈ 148 µM)	79.3 (≈ 129 µM)
COCc1cc(COc2c(C)cccc2-c2cccc(N3C[C@@H]4C[C@]4(C(=O)O)[C@H]3COC)n2)cc2c1CN(C1COC1)CC2 [Compound 281]	267	25	120 (≈ 200 µM)	87.4 (≈ 146 µM)	83.1 (≈ 139 µM)
CO[C@H]1CN(c2cccc(-c3cccc(C)c3OCc3ccc4c(c3C)CCN(C3COC3)CC4)n2)CC[C@H]1C(=O)O [Compound 282]	14	58	137 (≈ 240 µM)	99.6 (≈ 174 µM)	80.5 (≈ 141 µM)
COCc1cc(COc2c(C)cccc2-c2cccc(N3CC[C@H](C(=O)O)[C@H](OC)C3)n2)cc2c1CN(C1CCOC1)CC2 (some centres unmarked) [Compound 284]	231	<24	129 (≈ 215 µM)	103 (≈ 171 µM)	83.5 (≈ 139 µM)
COCc1cc(COc2c(C)cccc2-c2cccc(N3CC[C@H](C(=O)O)[C@H](OC)C3)n2)cc2c1CN(C1COC1)CC2 [Compound 285]	359	<24	146 (≈ 248 µM)	111 (≈ 188 µM)	97.6 (≈ 166 µM)
COCc1cc(COc2c(C)cccc2-c2cccc(N3CC[C@H](C(=O)O)[C@H](OC)C3)n2)cc2c1CN(C1CCOCC1)CC2 [Compound 286]	160	<24	149 (≈ 242 µM)	119 (≈ 193 µM)	88.5 (≈ 144 µM)
CO[C@H]1CN(c2nc(-c3cccc(C)c3OCc3ccc4c(c3C)CCN(C3COC3)CC4)cs2)CC[C@H]1C(=O)O [Compound 287]	13	<24	120 (≈ 207 µM)	72.7 (≈ 126 µM)	71.7 (≈ 124 µM)
CO[C@H]1CN(c2nc(-c3cccc(C)c3OCc3ccc4c(c3C)CCN(C3CCOCC3)CC4)cs2)CC[C@H]1C(=O)O [Compound 288]	18	<24	117 (≈ 193 µM)	75.5 (≈ 125 µM)	71.8 (≈ 119 µM)
CO[C@H]1CN(c2cccc(-c3cccc(C)c3OCc3ccc4c(c3C)CCN(C3COC3)CC4)n2)CC[C@@H]1C(=O)O [Compound 289]	235	<24	123 (≈ 215 µM)	82.4 (≈ 144 µM)	69.9 (≈ 122 µM)
CO[C@@H]1CN(c2cccc(-c3cccc(C)c3OCc3ccc4c(c3C)CCN(C3COC3)CC4)n2)CC[C@H]1C(=O)O [Compound 290]	228	<24	119 (≈ 208 µM)	80 (≈ 140 µM)	66.5 (≈ 116 µM)
CO[C@H]1CN(c2cccc(-c3cccc(C)c3OCc3ccc4c(c3C)CCN(C3CCOCC3)CC4)n2)CC[C@@H]1C(=O)O [Compound 296]	363	<24	132 (≈ 219 µM)	77.2 (≈ 129 µM)	68.8 (≈ 115 µM)
CO[C@@H]1CN(c2cccc(-c3cccc(C)c3OCc3ccc4c(c3C)CCN(C3CCOCC3)CC4)n2)CC[C@H]1C(=O)O [Compound 297]	150	<24	134 (≈ 224 µM)	93.7 (≈ 156 µM)	77.3 (≈ 129 µM)
CO[C@H]1CN(c2cccc(-c3cccc(C)c3OCc3cc(C)c4c(c3)CCN(C3CCOCC3)C4)n2)CC[C@@H]1C(=O)O [Compound 298]	578	34	131 (≈ 224 µM)	98.1 (≈ 167 µM)	80.1 (≈ 137 µM)

The next lines start with the values.

EC50 [1] [nM]	Metabolic stability (Qh %), % hepatic blood flow [2] [%]	solubility at 24 h (physchem; [3]) [µg/mL]	solubility at 24 h (physchem; [4]) [µg/mL]	solubility at 24 h (physchem; [5]) [µg/mL]	SMILES
5	<24	109 (≈ 179 µM)	63.1 (≈ 103 µM)	59.4 (≈ 97.4 µM)	CO[C@@H]1CN(c2nc(-c3cccc(C)c3OCc3ccc4c(c3F)CCN(C3CCOCC3)CC4)cs2)CC[C@@H]1C(=O)O [Compound 266]
4	40	119 (≈ 198 µM)	88.6 (≈ 147 µM)	57.8 (≈ 96.1 µM)	COC[C@H]1N(c2cccc(-c3cccc(C)c3OCc3ccc4c(c3F)CCN(C3CCOC3)CC4)n2)C[C@@H]2C[C@@]21C(=O)O (some centres unmarked) [Compound 268]
2	38	114 (≈ 179 µM)	73.4 (≈ 115 µM)	64 (≈ 100 µM)	CCO[C@@H]1CN(c2nc(-c3cccc(C)c3OCc3cc(OC)c4c(c3F)CCN(C3CCOCC3)C4)cs2)CC[C@@H]1C(=O)O [Compound 270]
5	<24	134 (≈ 214 µM)	66.6 (≈ 106 µM)	32.8 (≈ 52.4 µM)	COc1cc(COc2ccc(C)cc2-c2csc(N3CC[C@@H](C(=O)O)[C@@H](OC)C3)n2)c(F)c2c1CN(C1CCOCC1)CC2 [Compound 271]
2	<24	128 (≈ 201 µM)	54.1 (≈ 84.6 µM)	18.5 (≈ 28.9 µM)	CCO[C@@H]1CN(c2nc(-c3cc(C)ccc3OCc3cc(OC)c4c(c3F)CCN(C3CCOCC3)C4)cs2)CC[C@@H]1C(=O)O [Compound 272]
4	<24	114 (≈ 198 µM)	72 (≈ 125 µM)	65.5 (≈ 114 µM)	CO[C@H]1CN(c2cccc(-c3cccc(C)c3OCc3cc(F)c4c(c3)CCN(C3COC3)CC4)n2)CC[C@H]1C(=O)O [Compound 274]
4	<24	133 (≈ 220 µM)	97.1 (≈ 161 µM)	74.4 (≈ 123 µM)	CO[C@H]1CN(c2cccc(-c3cccc(C)c3OCc3ccc4c(c3F)CCN(C3CCOCC3)CC4)n2)CC[C@H]1C(=O)O [Compound 277]
4	<24	124 (≈ 212 µM)	89.4 (≈ 153 µM)	68.4 (≈ 117 µM)	CO[C@@H]1CN(c2cccc(-c3cccc(C)c3OCc3ccc4c(c3C)CCN(C3CCOC3)CC4)n2)CC[C@@H]1C(=O)O (some centres unmarked) [Compound 283]
2	<24	128 (≈ 224 µM)	84.7 (≈ 148 µM)	62.3 (≈ 109 µM)	CO[C@@H]1CN(c2cccc(-c3cccc(C)c3OCc3cc(C)c4c(c3)CCN(C3COC3)CC4)n2)CC[C@@H]1C(=O)O [Compound 291]
3	47	113 (≈ 216 µM)	43.5 (≈ 83.1 µM)	6.2 (≈ 11.8 µM)	Cc1c(COc2ccccc2-c2cccc(N3CC[C@@]4(C(=O)O)C[C@H]4C3)n2)ccc2c1CCN(C1CCC1)C2 [Compound 292]
1	25	116 (≈ 193 µM)	82.3 (≈ 137 µM)	63.1 (≈ 105 µM)	CO[C@@H]1CN(c2cccc(-c3cccc(C)c3OCc3cc(C)c4c(c3)CCN(C3CCOCC3)CC4)n2)CC[C@@H]1C(=O)O [Compound 293]
